This passage reports IC50 and inhibition results from US9290457B2, “Substituted dihydropyrimidinones and their use as inhibitors of neutrophil elastase activity” (Boehringer Ingelheim International GmbH, priority 2014, dated 2016).

The target of one series is cytochrome P450 2C9 (Homo sapiens (Human), UniProt P11712). Put plainly: Cytochrome P450 2C9 inhibition. The series is classed as in vitro ADME. The note with it: human liver microsomes, Diclofenac hydroxylation; read-out: IC50 CYP2C9 inhibition. As for the experimental part:
Assay for Determination of Cytochrome P450 2C9 Inhibition
All assays are carried out on a robotic system in 96 well plates. The final incubation volume contains TRIS buffer (0.1 M), MgCl2 (5 mM), human liver microsomes (0.1 mg/ml), Diclofenac (10 μM) and the test compound at five different concentrations or no compound (high control) in duplicate (e.g. highest concentration 10-50 μM with subsequent serial 1:4 dilutions). Following a short preincubation period, reactions are started with the cofactor (NADPH, 1 mM) and stopped by cooling the incubation down to 8° C. and subsequently by addition of one volume of acetonitrile. An internal standard solution—usually the stable isotope of the formed metabolite—is added after quenching of incubations. Peak area analyte (=metabolite formed) and internal standard is determined by LC-MS/MS. The resulting peak area ratio analyte to internal standard in these incubations is compared to a control activity containing no test compound.
If the inhibition of the reaction is already >50% at the lowest concentration of the test compound, the IC50 is assigned “<lowest concentration tested” (usually <0.4 μM). If the inhibition of the reaction is still <50% at the highest concentration of the test compound, the IC50 is assigned “>highest concentration tested” (usually >50 μM).
Background: Liver microsomes are vesicles of endoplasmic reticulum, rich in cytochrome P450 enzymes.

The target of the next series is hERG potassium channel (Homo sapiens (Human), UniProt Q12809). The series can be described thus: hERG inhibition patch clamp assay. The series is classed as cell-based. The note with it: human, @ 10 μM. An excerpt: Calculations: Fold induction=(Enzyme mRNA Compound)/(Enzyme mRNA Solvent Control) Inducer Potency=(Fold Compound)/(Fold Rifampicin)*100 Assay for Determination of hERG Inhibition
Chain of hERG potassium channel (Q12809 whole entry): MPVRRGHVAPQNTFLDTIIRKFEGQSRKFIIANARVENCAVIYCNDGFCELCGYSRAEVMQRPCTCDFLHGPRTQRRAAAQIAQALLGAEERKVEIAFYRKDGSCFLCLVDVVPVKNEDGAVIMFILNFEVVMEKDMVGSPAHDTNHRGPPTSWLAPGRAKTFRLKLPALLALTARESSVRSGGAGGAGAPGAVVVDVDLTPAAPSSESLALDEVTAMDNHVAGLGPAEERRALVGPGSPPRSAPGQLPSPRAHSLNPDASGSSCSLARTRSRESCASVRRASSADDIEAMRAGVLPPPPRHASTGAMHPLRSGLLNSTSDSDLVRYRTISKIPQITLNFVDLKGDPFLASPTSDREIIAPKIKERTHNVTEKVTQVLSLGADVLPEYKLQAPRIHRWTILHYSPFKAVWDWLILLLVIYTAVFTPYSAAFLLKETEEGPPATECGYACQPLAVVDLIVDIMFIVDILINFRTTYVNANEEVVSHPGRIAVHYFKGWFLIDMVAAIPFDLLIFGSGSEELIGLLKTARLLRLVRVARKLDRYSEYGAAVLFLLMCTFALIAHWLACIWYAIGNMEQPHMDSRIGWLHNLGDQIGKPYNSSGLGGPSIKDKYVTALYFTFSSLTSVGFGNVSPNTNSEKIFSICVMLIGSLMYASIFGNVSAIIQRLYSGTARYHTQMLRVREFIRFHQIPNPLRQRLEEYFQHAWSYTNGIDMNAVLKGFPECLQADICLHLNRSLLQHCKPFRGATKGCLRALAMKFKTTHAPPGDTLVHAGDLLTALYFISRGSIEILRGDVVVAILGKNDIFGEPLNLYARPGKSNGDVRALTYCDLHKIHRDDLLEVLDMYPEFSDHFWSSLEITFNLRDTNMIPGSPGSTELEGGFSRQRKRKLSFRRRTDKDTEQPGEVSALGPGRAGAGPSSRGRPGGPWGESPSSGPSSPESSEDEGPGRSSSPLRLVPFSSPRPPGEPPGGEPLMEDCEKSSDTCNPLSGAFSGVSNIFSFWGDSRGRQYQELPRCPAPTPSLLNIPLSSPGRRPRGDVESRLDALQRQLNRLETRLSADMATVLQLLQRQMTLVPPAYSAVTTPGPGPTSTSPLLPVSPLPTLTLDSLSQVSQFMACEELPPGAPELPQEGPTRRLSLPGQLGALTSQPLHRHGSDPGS
The inhibition of the hERG (human ether-a-go-go-related gene) potassium channel can be determined as described in Rast, G., & Guth, B. D., Journal of Pharmacological and Toxicological Methods (2014), http://dx.doi.org/10.1016/j.vasen.2014.08.001.
(Block of hERG is tested as a sign of cardiac risk.)

Chain of cytochrome P450 2C9 (P11712 whole entry): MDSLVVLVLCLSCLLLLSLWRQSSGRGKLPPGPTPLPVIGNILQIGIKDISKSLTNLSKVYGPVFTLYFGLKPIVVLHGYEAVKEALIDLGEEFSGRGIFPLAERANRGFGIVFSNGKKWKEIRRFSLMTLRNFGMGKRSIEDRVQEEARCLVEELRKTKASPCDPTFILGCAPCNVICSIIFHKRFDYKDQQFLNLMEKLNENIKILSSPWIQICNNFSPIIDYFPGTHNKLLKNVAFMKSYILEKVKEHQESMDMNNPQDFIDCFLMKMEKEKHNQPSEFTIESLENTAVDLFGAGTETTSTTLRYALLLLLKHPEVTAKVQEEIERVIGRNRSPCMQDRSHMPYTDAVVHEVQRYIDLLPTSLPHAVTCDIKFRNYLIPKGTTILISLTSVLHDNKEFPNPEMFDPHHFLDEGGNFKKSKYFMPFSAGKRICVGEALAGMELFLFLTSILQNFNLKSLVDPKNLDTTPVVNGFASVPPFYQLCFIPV

For `CNC(=O)c1cc(C#N)ccc1[C@@H]1C(C(C)=O)=C(C)N(c2cccc(C(F)(F)F)c2)C(=O)N1C` [Example 13.1], the IC50 on cytochrome P450 2C9 was above 50 µM. As to `CC(=O)C1=C(C)N(c2cccc(C(F)(F)F)c2)C(=O)N(C)[C@@H]1c1ccc(C#N)cc1-c1ccc(=O)n(C)c1` [Example 16, 4-[(R)-5-Acetyl-3,6-dimethyl-2-oxo-1-(3-trifluoromethyl-phenyl)-1,2,3,4-tetrahydro-pyrimidin-4-yl]-3-(1-methyl-6-oxo-1,6-dihydro-pyridin-3-yl)-benzonitrile], the IC50 at cytochrome P450 2C9 was above 50 µM. The compound also gave an inhibition at 10 µM against hERG potassium channel of 8%.

For orientation: IC50 means the concentration at which inhibition is half-maximal. In general, inhibition refers to the change of the read-out against control, counted positive when it falls. Read a low inhibition as a response near the control.
